Our source for the Km values is patent publication US5834286A, “Recombinant cells that express phytate degrading enzymes in desired ratios” (Rohm Enzyme Finland Oy, priority 1995, dated 1998).

Like-named read-outs stand apart in the source and are kept apart here.

Data set [1] addresses T1, Aspergillus niger var. awamori strain ALKO243 (ATCC#38854) pH2.5 acid phosphatase, purified native enzyme, SEQ. ID. NO. 4 (Aspergillus awamori, UniProt P34755).
T1 construct: Peptide #1110T is derived from a trypsin digestion of purified native pH2.5 acid phosphatase; endogenous in cells; host or cells: A. niger var. awamori strain ALKO243 (ATCC#38854), purified in house from the cell-free culture medium
T1 sequence (P34755 20-479): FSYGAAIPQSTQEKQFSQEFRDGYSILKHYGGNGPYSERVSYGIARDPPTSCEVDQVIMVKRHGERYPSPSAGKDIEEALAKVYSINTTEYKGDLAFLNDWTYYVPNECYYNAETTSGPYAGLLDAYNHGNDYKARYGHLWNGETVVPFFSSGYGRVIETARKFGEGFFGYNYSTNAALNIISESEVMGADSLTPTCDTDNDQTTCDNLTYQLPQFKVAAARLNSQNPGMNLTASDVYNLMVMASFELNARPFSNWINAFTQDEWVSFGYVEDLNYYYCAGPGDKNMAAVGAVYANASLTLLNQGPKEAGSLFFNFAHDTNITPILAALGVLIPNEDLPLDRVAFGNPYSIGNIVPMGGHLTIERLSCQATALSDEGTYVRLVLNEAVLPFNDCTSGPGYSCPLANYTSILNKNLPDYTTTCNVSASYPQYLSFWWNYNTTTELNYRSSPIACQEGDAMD
Briefly: Apparent Km of purified pH2.5 acid phosphatase (phosphate release, molybdate detection). Format: biochemical. The note with it: 37° C., read-out: apparent Km for sodium phytate.

In data set [2] the target is Aspergillus ficuum phytase (WO 91/05053) (Aspergillus niger, UniProt P34752). The note with it: reported in WO 91/05053; substrate not given; cited from earlier work.
Data set [3] addresses T2, Aspergillus ficuum phytase, wild type (Ullah, 1988) (Aspergillus niger, UniProt P34752).
T2 construct: Ullah reportedly purified a phytase from wild-type A. ficuum; host or cells: wild-type A. ficuum (extracellular enzyme)
The note with it: reported by Ullah 1988; substrate not given; cited from earlier work.

Substrate in data set [4]: O=[N+]([O-])c1ccc(OP(=O)(O)O)cc1
Briefly: purified protein, by the assay type. The note with it: other: 37° C., pH2.5, pH 2.5.

Substrate in data set [5]: O=P(O)(O)O[C@H]1[C@H](OP(=O)(O)O)[C@@H](OP(=O)(O)O)[C@H](OP(=O)(O)O)[C@@H](OP(=O)(O)O)[C@H]1OP(=O)(O)O
Briefly: Apparent Km of purified pH2.5 acid phosphatase (phosphate release, molybdate detection). Format: biochemical, Aspergillus niger var. awamori. The settings on record: other: 37° C., pH 2.5.

T2 sequence (P34752 20-467): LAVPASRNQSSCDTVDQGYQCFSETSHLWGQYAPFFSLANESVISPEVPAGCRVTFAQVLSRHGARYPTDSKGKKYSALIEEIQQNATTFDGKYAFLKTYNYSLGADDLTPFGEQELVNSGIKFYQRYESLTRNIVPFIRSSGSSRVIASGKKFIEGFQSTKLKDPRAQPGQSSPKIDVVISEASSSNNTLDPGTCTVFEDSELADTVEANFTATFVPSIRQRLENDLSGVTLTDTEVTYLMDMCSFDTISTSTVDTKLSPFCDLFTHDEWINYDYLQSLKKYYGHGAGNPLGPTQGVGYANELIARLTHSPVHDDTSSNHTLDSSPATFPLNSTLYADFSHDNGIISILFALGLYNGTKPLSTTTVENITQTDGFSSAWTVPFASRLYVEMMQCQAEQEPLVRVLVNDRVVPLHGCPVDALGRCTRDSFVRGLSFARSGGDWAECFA
Chain of Aspergillus ficuum phytase (WO 91/05053) (P34752 24-467): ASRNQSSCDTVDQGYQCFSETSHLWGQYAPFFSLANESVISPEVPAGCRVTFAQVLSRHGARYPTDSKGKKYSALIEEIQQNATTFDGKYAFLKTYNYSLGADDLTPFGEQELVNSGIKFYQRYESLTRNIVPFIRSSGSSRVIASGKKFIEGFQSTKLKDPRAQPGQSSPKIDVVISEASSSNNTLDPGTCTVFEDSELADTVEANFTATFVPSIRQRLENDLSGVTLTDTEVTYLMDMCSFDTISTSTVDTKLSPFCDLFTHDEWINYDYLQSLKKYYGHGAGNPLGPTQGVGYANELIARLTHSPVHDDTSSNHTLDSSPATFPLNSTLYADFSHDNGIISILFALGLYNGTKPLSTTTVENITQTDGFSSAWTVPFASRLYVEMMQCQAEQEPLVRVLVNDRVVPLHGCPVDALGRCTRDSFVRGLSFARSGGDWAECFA

Regarding `O=P(O)(O)O[C@H]1[C@H](OP(=O)(O)O)[C@@H](OP(=O)(O)O)[C@H](OP(=O)(O)O)[C@@H](OP(=O)(O)O)[C@H]1OP(=O)(O)O` [sodium phytate], the Km in data set [1] (listed as Na-phytate) and in data set [1] was roughly 700 µM in each case.

Regarding `O=P(O)(O)O[C@H]1[C@H](OP(=O)(O)O)[C@@H](OP(=O)(O)O)[C@H](OP(=O)(O)O)[C@@H](OP(=O)(O)O)[C@H]1OP(=O)(O)O` [phytate, myo-inositol-hexaphosphate], the Km was roughly 250 µM in data set [2] and roughly 40 µM in data set [3].

B1: Aspergillus niger var. awamori strain ALKO243 (ATCC#38854) pH2.5 acid phosphatase, purified native enzyme, SEQ. ID. NO. 4 (Aspergillus awamori) (protein)
chain: T1 sequence (P34755 20-479)
notes: Peptide #1110T is derived from a trypsin digestion of purified native pH2.5 acid phosphatase; endogenous in cells; host or cells: A. niger var. awamori strain ALKO243 (ATCC#38854), purified in house from the cell-free culture medium
Turning to B1, the values for the Km in data set [4] and in data set [5] were 4 mM and 0.7 mM, respectively.
